Legend:
mice [1] = assay: Loss-of-righting reflex anesthetic potency assay in mice; format: in vivo, mice (C57BL/6J)
[2] = pharmacokinetic profiling; format: in vivo; conditions: data not shown
Xenopus tadpoles = assay: Xenopus tadpole anesthetic activity; format: in vivo, Xenopus laevis
apoferritin = apoferritin (Equus caballus, UniProt P02791); assay: biochemical
mice [3] = conditions: previously reported; cited from earlier work

Sequence of apoferritin (P02791 2-175 limits assumed): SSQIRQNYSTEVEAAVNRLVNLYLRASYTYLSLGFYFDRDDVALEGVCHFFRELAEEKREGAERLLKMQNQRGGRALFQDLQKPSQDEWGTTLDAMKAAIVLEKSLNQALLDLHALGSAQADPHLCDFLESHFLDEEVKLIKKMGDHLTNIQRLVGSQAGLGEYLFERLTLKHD

Row | SMILES | mean duration of LoRR (mice [1]; 100 mg/kg iv) [s] | onset of LoRR (mice [1]; intravenous, doses roughly twice that of propofol (moles per kilogram)) [s] | LogED50 for LoRR (mice [1]; iv injection, unit printed only with the propofol value of the same legend) [mmol/kg] | pharmacokinetic profile (uptake, distribution, elimination) [2] | anesthetic activity / potency in tadpoles (immobility), in words (Xenopus tadpoles; tadpole immobility after 60 minutes exposure, SAR statements to figs 4-6) | duration of LoRR (mice [1]; 20 mg/kg (0.11 mmol/kg)) | IC50 (apoferritin) [µM] | toxicity in tadpoles at 100 μM (Xenopus tadpoles; 100 μM) | logED50 in mice (mice [3]) [mmol/kg]
1 | Cc1ccc(-c2ccc(=O)n(CC(=O)NCCc3ccccc3)n2)cc1 [compound 5] | 245 ± 65 | < 20 | −0.761 | did not show any remarkable patterns of uptake, distribution, or elimination | optimal anesthetic activity |  |  |  | 
2 | CC(C)c1cccc(C(C)C)c1O [propofol, reference compound] |  |  |  |  |  | 445 ± 27 | 23 | produced death at 100 μM | −1.03

— paper PMC4300529 (Anesthesiology, 2015)
